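Briefly, cells in 96-well plates were exposed to five compound concentrations for 48 h, and endpoints were estimated by linear interpolation. TGI marks complete inhibition of growth.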
What was measured:
Test in all cases: DTP human tumour cell line panel, 48 h
CCRF-CEM leukemia = tested on: CCRF-CEM leukemia
SF-268 CNS = tested on: SF-268 CNS
HOP-62 NSCLC = tested on: HOP-62 NSCLC
UACC-62 melanoma = tested on: UACC-62 melanoma
TK-10 renal = tested on: TK-10 renal
ACHN renal = tested on: ACHN renal
OVCAR-4 ovarian = tested on: OVCAR-4 ovarian
MALME-3M melanoma = tested on: MALME-3M melanoma
HL-60(TB) leukemia = tested on: HL-60(TB) leukemia
KM12 colon = tested on: KM12 colon
MDA-MB-231 breast = tested on: MDA-MB-231 breast
SF-539 CNS = tested on: SF-539 CNS
HT29 colon = tested on: HT29 colon
NCI/ADR-RES ovarian = tested on: NCI/ADR-RES ovarian
EKVX NSCLC = tested on: EKVX NSCLC
BT-549 breast = tested on: BT-549 breast
OVCAR-3 ovarian = tested on: OVCAR-3 ovarian
PC-3 prostate = tested on: PC-3 prostate
SK-MEL-2 melanoma = tested on: SK-MEL-2 melanoma

Row | Compound | TGI (CCRF-CEM leukemia) | TGI (SF-268 CNS) | TGI (HOP-62 NSCLC) | TGI (UACC-62 melanoma) | TGI (TK-10 renal) | TGI (ACHN renal) | TGI (OVCAR-4 ovarian) | TGI (MALME-3M melanoma) | TGI (HL-60(TB) leukemia) | TGI (KM12 colon) | TGI (MDA-MB-231 breast) | TGI (SF-539 CNS) | TGI (HT29 colon) | TGI (NCI/ADR-RES ovarian) | TGI (EKVX NSCLC) | TGI (BT-549 breast) | TGI (OVCAR-3 ovarian) | TGI (PC-3 prostate) | TGI (SK-MEL-2 melanoma)
1 | C=CCCCCCCCCC(=O)ON(Cc1ccc(O)c(OC)c1)C(=O)C(F)(F)F | > 100 µM | > 100 µM | > 100 µM | > 100 µM | > 100 µM | > 100 µM | > 100 µM | > 100 µM | > 100 µM | > 100 µM | > 100 µM | > 100 µM | > 100 µM | > 100 µM | > 100 µM | – | – | – | –
2 | N#C[C@H](C(=O)c1ccccc1F)c1nc2ccccc2[nH]1 | > 100 µM | > 100 µM | > 100 µM | > 100 µM | > 100 µM | > 100 µM | > 100 µM | – | – | > 100 µM | > 100 µM | > 100 µM | > 100 µM | > 100 µM | > 100 µM | > 100 µM | > 100 µM | > 100 µM | > 100 µM
3 | CCN(CC)C(=S)S | 9.46 µM | > 100 µM | > 100 µM | 12.3 µM | > 100 µM | > 100 µM | – | 60.4 µM | 33.3 µM | > 100 µM | – | > 100 µM | – | – | > 100 µM | – | – | – | > 100 µM
4 | Cc1cc(OC(=O)c2c(C)cc(OC(=O)c3c(C)cc(O)cc3O)cc2O)cc(O)c1C(=O)O | > 100 µM | > 100 µM | > 100 µM | > 100 µM | > 100 µM | > 100 µM | > 100 µM | > 100 µM | > 100 µM | > 100 µM | – | > 100 µM | > 100 µM | – | > 100 µM | – | > 100 µM | – | > 100 µM
5 | Cc1cc(OC(=O)Nc2ccc(Cl)cc2)ccc1C(=S)Nc1ccccc1 | 58 µM | > 100 µM | > 100 µM | > 100 µM | – | > 100 µM | > 100 µM | > 100 µM | 53.7 µM | > 100 µM | – | > 100 µM | > 100 µM | > 100 µM | > 100 µM | > 100 µM | > 100 µM | > 100 µM | > 100 µM
6 | FC(F)(F)c1cnc(N/N=C(/c2ccccc2)c2ccccn2)c(Cl)c1 | 17.6 µM | 21.8 µM | 20.3 µM | 23.1 µM | – | 13.2 µM | 24.8 µM | – | – | 26.3 µM | 32 µM | 14.4 µM | 18.8 µM | 6.92 µM | 17.5 µM | 29.8 µM | 11.7 µM | 24.6 µM | 24.4 µM
7 | CCCCOCCOCCOC1=C(Cl)C(=O)c2c(O)ccc(O)c2C1=O | 0.555 µM | 2.11 µM | 2.53 µM | 3.47 µM | 2.63 µM | 3.11 µM | 1.38 µM | – | – | 3.6 µM | 1.32 µM | 2.84 µM | 1.25 µM | 7.49 µM | 6.96 µM | 2.72 µM | 2.08 µM | 3.19 µM | –
8 | Nc1ncnc2c1ncn2CCOC(c1ccccc1)P(=O)(O)O (stereo unspecified) | > 100 µM | > 100 µM | – | > 100 µM | > 100 µM | > 100 µM | – | > 100 µM | > 100 µM | > 100 µM | – | > 100 µM | > 100 µM | – | > 100 µM | – | > 100 µM | – | > 100 µM
9 | NC(N)=N/N=C\c1c(-c2ccccc2)nc2sccn12 | 73.3 µM | 29.9 µM | 29.1 µM | 29.4 µM | 31.2 µM | 30.6 µM | 29.5 µM | 30 µM | 53.3 µM | 27.5 µM | 27.3 µM | 30.2 µM | 28.6 µM | 34.9 µM | 28.1 µM | – | – | 28.5 µM | 28.6 µM
10 | CON(C)C(=O)C(C)NC(=O)OC(C)(C)C (stereo unspecified) | > 100 µM | > 100 µM | > 100 µM | > 100 µM | > 100 µM | > 100 µM | – | > 100 µM | > 100 µM | > 100 µM | – | > 100 µM | > 100 µM | > 100 µM | > 100 µM | > 100 µM | > 100 µM | > 100 µM | –
11 | Nc1ncnc2sc(Nc3ccccc3)nc12 | – | > 100 µM | > 100 µM | > 100 µM | > 100 µM | > 100 µM | > 100 µM | > 100 µM | 64.7 µM | > 100 µM | – | > 100 µM | > 100 µM | – | – | – | > 100 µM | – | > 100 µM
12 | CC(=O)Oc1ccc2cc(Oc3ccccc3)c(=O)oc2c1 | – | > 100 µM | > 100 µM | – | > 100 µM | > 100 µM | > 100 µM | > 100 µM | > 100 µM | > 100 µM | > 100 µM | > 100 µM | > 100 µM | – | > 100 µM | > 100 µM | > 100 µM | > 100 µM | –
13 | Cn1c(=O)c(C(=O)NC23CC4CC(CC(C4)C2)C3)c(O)c2ccccc21 | > 100 µM | > 100 µM | 43.6 µM | > 100 µM | 48 µM | 42.9 µM | – | 44.7 µM | > 100 µM | > 100 µM | – | > 100 µM | 48.1 µM | – | > 100 µM | – | 63 µM | – | –
14 | O=C(NN1C(=O)C(Cl)C1c1c(O)ccc2ccccc12)c1ccccc1O (stereo unspecified) | > 100 µM | > 100 µM | – | > 100 µM | > 100 µM | > 100 µM | > 100 µM | > 100 µM | > 100 µM | > 100 µM | – | > 100 µM | > 100 µM | – | – | – | > 100 µM | – | > 100 µM
15 | O/N=C1\CSc2ccccc2C1 | > 100 µM | > 100 µM | > 100 µM | > 100 µM | > 100 µM | > 100 µM | > 100 µM | > 100 µM | > 100 µM | > 100 µM | > 100 µM | > 100 µM | > 100 µM | > 100 µM | 94.5 µM | – | > 100 µM | > 100 µM | > 100 µM

From PubChem BioAssay (NCI)
